For 17 compounds, EC50 results are on record in US12655125B2 (SIRONAX LTD., priority 2020, dated 2026).

This experiment concerns HT-29 cells. As to the kind of experiment: HT29 Cells 0FBS Assay In Vitro (TNF-α/SMAC mimetic/zVAD-FMK induced necroptosis, CellTiter-Glo cell viability). Conditions: Homo sapiens; HT-29 cells, FBS free medium, TNF-α (10 ng/ml), SMAC mimetic (6 uM), zVAD-FMK (10 μM), 20 hours; geometric mean EC50; read-out: Cell activity (EC50) of Compounds 117-281. Format: cell-based. In a few lines: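 Viability was measured by ATP luminescence (CellTiter-Glo) after 20 h at 37° C of compound exposure in 10-point, 1:3 dilutions. Necroptosis in FBS-free HT-29 cultures was driven by a TNF-α (10 ng/ml), SMAC mimetic (6 μM) and zVAD-FMK (10 μM) cocktail. EC50 values are geometric means from duplicate curves.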
As usually defined, the EC50 is the concentration giving half of the maximal effect. As for `Cc1nn(-c2cc(OC3CN(C(=O)N4N=CC[C@H]4c4cc(F)cc(F)c4)C3)c(F)cn2)c(C)c1C` [compound 251, (S)-(5-(3,5-difluorophenyl)-4,5-dihydro-1H-pyrazol-1-yl)(3-((5-fluoro-2-(3,4,5-trimethyl-1H-pyrazol-1-yl)pyridin-4-yl)oxy)azetidin-1-yl)methanone], the EC50 was in the range of 0.0001 to 0.1 µM.

With `Cc1nn(-c2cc(OC3CN(C(=O)N4N=CC[C@H]4c4cc(F)cc(F)c4)C3)c(F)cn2)c(C)c1C(=O)NO` [compound 252, (S)-1-(4-((1-(5-(3,5-difluorophenyl)-4,5-dihydro-1H-pyrazole-1-carbonyl)azetidin-3-yl)oxy)-5-fluoropyridin-2-yl)-N-hydroxy-3,5-dimethyl-1H-pyrazole-4-carboxamide], the EC50 is 0.0001 to 0.1 µM.

Regarding `Cc1nn(-c2cc(OC3CN(C(=O)N4N=CC[C@H]4c4cc(F)cc(F)c4)C3)c(F)cn2)c(C)c1C(=O)NC#N` [compound 253, (S)—N-cyano-1-(4-((1-(5-(3,5-difluorophenyl)-4,5-dihydro-1H-pyrazole-1-carbonyl)azetidin-3-yl)oxy)-5-fluoropyridin-2-yl)-3,5-dimethyl-1H-pyrazole-4-carboxamide], the concentration for a half-maximal effect (EC50) lay in the range of 0.0001 to 0.1 µM. Take `Cc1nn(-c2cc(OC3CN(C(=O)N4N=CC[C@H]4c4cc(F)cc(F)c4)C3)c(F)cn2)c(C)c1C(=O)N[C@H]1C[C@@H](O)C1` [compound 254, 1-(4-((1-((S)-5-(3,5-difluorophenyl)-4,5-dihydro-1H-pyrazole-1-carbonyl)azetidin-3-yl)oxy)-5-fluoropyridin-2-yl)-N-((1s,3s)-3-hydroxycyclobutyl)-3,5-dimethyl-1H-pyrazole-4-carboxamide]: the EC50 is 0.0001 to 0.1 µM. `Cc1nn(-c2cc(OC3CN(C(=O)N4N=CC[C@H]4c4cc(F)cc(F)c4)C3)c(F)cn2)c(C)c1C(=O)N[C@H]1C[C@H](O)C1` [compound 255, 1-(4-((1-((S)-5-(3,5-difluorophenyl)-4,5-dihydro-1H-pyrazole-1-carbonyl)azetidin-3-yl)oxy)-5-fluoropyridin-2-yl)-N-((1r,3r)-3-hydroxycyclobutyl)-3,5-dimethyl-1H-pyrazole-4-carboxamide]: the EC50 lay within 0.0001 to 0.1 µM. For `Cc1nn(-c2cc(OC3CN(C(=O)N4N=CC[C@H]4c4cc(F)cc(F)c4)C3)c(F)cn2)c(C)c1C(=O)NCCN(C)C` [compound 256, (S)-1-(4-((1-(5-(3,5-difluorophenyl)-4,5-dihydro-1H-pyrazole-1-carbonyl)azetidin-3-yl)oxy)-5-fluoropyridin-2-yl)-N-(2-(dimethylamino)ethyl)-3,5-dimethyl-1H-pyrazole-4-carboxamide] the value was 0.0001 to 0.1 µM; for `Cc1nn(-c2cc(OC3CN(C(=O)N4N=CC[C@H]4c4cc(F)cc(F)c4)C3)c(F)cn2)c(C)c1C(=O)N[C@H]1CCOC1` [compound 257, 1-(4-((1-((S)-5-(3,5-difluorophenyl)-4,5-dihydro-1H-pyrazole-1-carbonyl)azetidin-3-yl)oxy)-5-fluoropyridin-2-yl)-3,5-dimethyl-N—((S)-tetrahydrofuran-3-yl)-1H-pyrazole-4-carboxamide], 0.0001 to 0.1 µM; for `Cc1nn(-c2cc(OC3CN(C(=O)N4N=CC[C@H]4c4cc(F)cc(F)c4)C3)c(F)cn2)c(C)c1C(=O)N[C@@H]1CCOC1` [compound 258, 1-(4-((1-((S)-5-(3,5-difluorophenyl)-4,5-dihydro-1H-pyrazole-1-carbonyl)azetidin-3-yl)oxy)-5-fluoropyridin-2-yl)-3,5-dimethyl-N—((R)-tetrahydrofuran-3-yl)-1H-pyrazole-4-carboxamide], 0.0001 to 0.1 µM. `Cc1nn(-c2cc(OC3CN(C(=O)N4N=CC[C@H]4c4cc(F)cc(F)c4)C3)c(F)cn2)c(C)c1CCO` [compound 259, (S)-(5-(3,5-difluorophenyl)-4,5-dihydro-1H-pyrazol-1-yl)(3-((5-fluoro-2-(4-(2-hydroxyethyl)-3,5-dimethyl-1H-pyrazol-1-yl)pyridin-4-yl)oxy)azetidin-1-yl)methanone]: the concentration for a half-maximal effect (EC50) fell in the range of 0.0001 to 0.1 µM. With `O=C(N1CC(Oc2cc(-c3ccn[nH]3)ncc2F)C1)N1N=CC[C@H]1c1cc(F)cc(F)c1` [compound 261, (S)-(5-(3,5-difluorophenyl)-4,5-dihydro-1H-pyrazol-1-yl)(3-((5-fluoro-2-(1H-pyrazol-5-yl)pyridin-4-yl)oxy)azetidin-1-yl)methanone], the concentration for a half-maximal effect (EC50) was in the range of 0.0001 to 0.1 µM. `Cc1c(-c2cc(OC3CN(C(=O)N4N=CC[C@H]4c4cc(F)cc(F)c4)C3)c(F)cn2)nn(C)c1C(=O)NC1COC1` [compound 262, (S)-3-(4-((1-(5-(3,5-difluorophenyl)-4,5-dihydro-1H-pyrazole-1-carbonyl)azetidin-3-yl)oxy)-5-fluoropyridin-2-yl)-1,4-dimethyl-N-(oxetan-3-yl)-1H-pyrazole-5-carboxamide]: the concentration for a half-maximal effect (EC50) is 0.0001 to 0.1 µM.

For `Cc1c(-c2cc(OC3CN(C(=O)N4N=CC[C@H]4c4cc(F)cc(F)c4)C3)c(F)cn2)nn(C)c1C(=O)NC1CC(O)C1` (stereo partly drawn) [compound 263, (S)-3-(4-((1-(5-(3,5-difluorophenyl)-4,5-dihydro-1H-pyrazole-1-carbonyl)azetidin-3-yl)oxy)-5-fluoropyridin-2-yl)-N-(3-hydroxycyclobutyl)-1,4-dimethyl-1H-pyrazole-5-carboxamide], the EC50 lay in the range of 0.0001 to 0.1 µM.

In the case of `Cc1c(-c2cc(OC3CN(C(=O)N4N=CC[C@H]4c4cc(F)cc(F)c4)C3)c(F)cn2)nn(C)c1C(=O)NC1CCC1` [compound 264, (S)—N-cyclobutyl-3-(4-((1-(5-(3,5-difluorophenyl)-4,5-dihydro-1H-pyrazole-1-carbonyl)azetidin-3-yl)oxy)-5-fluoropyridin-2-yl)-1,4-dimethyl-1H-pyrazole-5-carboxamide], the EC50 is 0.0001 to 0.1 µM. For `Cc1c(-c2cc(OC3CN(C(=O)N4N=CC[C@H]4c4cc(F)cc(F)c4)C3)c(F)cn2)nn(C)c1C(=O)NCCO` [compound 265, (S)-3-(4-((1-(5-(3,5-difluorophenyl)-4,5-dihydro-1H-pyrazole-1-carbonyl)azetidin-3-yl)oxy)-5-fluoropyridin-2-yl)-N-(2-hydroxyethyl)-1,4-dimethyl-1H-pyrazole-5-carboxamide] the value was 0.0001 to 0.1 µM. Turning to `Cc1c(-c2cc(OC3CN(C(=O)N4N=CC[C@H]4c4cc(F)cc(F)c4)C3)c(F)cn2)nn(C)c1C1=NCCN1` [compound 266, (S)-(5-(3,5-difluorophenyl)-4,5-dihydro-1H-pyrazol-1-yl)(3-((2-(5-(4,5-dihydro-1H-imidazol-2-yl)-1,4-dimethyl-1H-pyrazol-3-yl)-5-fluoropyridin-4-yl)oxy)azetidin-1-yl)methanone], the EC50 was in the range of 0.0001 to 0.1 µM.

For the compound `Cc1c(-c2cc(OC3CN(C(=O)N4N=CC[C@H]4c4cc(F)cc(F)c4)C3)c(F)cn2)nn(C)c1C1=NCCN1C` [compound 267, (S)-(5-(3,5-difluorophenyl)-4,5-dihydro-1H-pyrazol-1-yl)(3-((2-(1,4-dimethyl-5-(1-methyl-4,5-dihydro-1H-imidazol-2-yl)-1H-pyrazol-3-yl)-5-fluoropyridin-4-yl)oxy)azetidin-1-yl)methanone], the EC50 lay within 0.1 to 1 µM. Take `Cc1noc(C)c1-c1cc(OC2CN(C(=O)N3N=CC[C@H]3c3cc(F)cc(F)c3)C2)c(F)cn1` [compound 268, (S)-(5-(3,5-difluorophenyl)-4,5-dihydro-1H-pyrazol-1-yl)(3-((2-(3,5-dimethylisoxazol-4-yl)-5-fluoropyridin-4-yl)oxy)azetidin-1-yl)methanone]: the concentration for a half-maximal effect (EC50) was 0.0001 to 0.1 µM.
